Data from ChEMBL document CHEMBL2434896, “Carbonic anhydrase inhibitors. Synthesis of heterocyclic 4-substituted pyridine-3-sulfonamide derivatives and their inhibition of the human cytosolic isozymes I and II and transmembrane tumor-associated isozymes IX and XII” (Eur J Med Chem, 2013).
The source made the active and inactive calls. No cut-off for these calls is given here.

Tests used:
[1] = tested on: IGROV-1; experiment: Growth inhibition of human IGROV1 cells at 10 uM after 48 hrs by sulforhodamine B assay; type: functional
[2] = tested on: HCT-15; experiment: Growth inhibition of human HCT15 cells at 10 uM after 48 hrs by sulforhodamine B assay; type: functional
[3] = tested on: Hs-578T; experiment: Growth inhibition of human Hs 578T cells at 10 uM after 48 hrs by sulforhodamine B assay; type: functional
[4] = tested on: NCI-H23; experiment: Growth inhibition of human NCI-H23 cells at 10 uM after 48 hrs by sulforhodamine B assay; type: functional; conditions: NCI-H23, 48 h, read-out: GI
[5] = tested on: EKVX; experiment: Growth inhibition of human EKVX cells at 10 uM after 48 hrs by sulforhodamine B assay; type: functional
[6] = tested on: HCC 2998; experiment: Growth inhibition of human HCC2998 cells at 10 uM after 48 hrs by sulforhodamine B assay; type: functional
[7] = tested on: SF-268; experiment: Growth inhibition of human SF268 cells at 10 uM after 48 hrs by sulforhodamine B assay; type: functional; conditions: SF-268, 48 h, read-out: GI
[8] = tested on: HOP-62; experiment: Growth inhibition of human HOP62 cells at 10 uM after 48 hrs by sulforhodamine B assay; type: functional
[9] = tested on: SN12C; experiment: Growth inhibition of human SN12C cells at 10 uM after 48 hrs by sulforhodamine B assay; type: functional
[10] = tested on: BT-549; experiment: Growth inhibition of human BT549 cells at 10 uM after 48 hrs by sulforhodamine B assay; type: functional; conditions: BT-549, 48 h, read-out: GI
[11] = tested on: SF-295; experiment: Growth inhibition of human SF295 cells at 10 uM after 48 hrs by sulforhodamine B assay; type: functional
[12] = tested on: NCI-H226; experiment: Growth inhibition of human NCI-H226 cells at 10 uM after 48 hrs by sulforhodamine B assay; type: functional; conditions: NCI-H226, 48 h, read-out: GI
[13] = tested on: 786-0; experiment: Growth inhibition of human 786-0 cells at 10 uM after 48 hrs by sulforhodamine B assay; type: functional; conditions: 786-0, 48 h, read-out: GI
[14] = tested on: Malme-3M; experiment: Growth inhibition of human MALME-3M cells at 10 uM after 48 hrs by sulforhodamine B assay; type: functional; conditions: read-out: GI
[15] = tested on: KM12; experiment: Growth inhibition of human KM12 cells at 10 uM after 48 hrs by sulforhodamine B assay; type: functional; conditions: KM12, 48 h, read-out: GI
[16] = tested on: SNB-19; experiment: Growth inhibition of human SNB19 cells at 10 uM after 48 hrs by sulforhodamine B assay; type: functional
[17] = tested on: OVCAR-3; experiment: Growth inhibition of human OVCAR3 cells at 10 uM after 48 hrs by sulforhodamine B assay; type: functional
[18] = tested on: M14; experiment: Growth inhibition of human M14 cells at 10 uM after 48 hrs by sulforhodamine B assay; type: functional; conditions: M14, 48 h, read-out: GI
[19] = tested on: SK-MEL-5; experiment: Growth inhibition of human SK-MEL-5 cells at 10 uM after 48 hrs by sulforhodamine B assay; type: functional
[20] = tested on: MCF7; experiment: Growth inhibition of human MCF7 cells at 10 uM after 48 hrs by sulforhodamine B assay; type: functional
[21] = tested on: SF-539; experiment: Growth inhibition of human SF539 cells at 10 uM after 48 hrs by sulforhodamine B assay; type: functional; conditions: SF-539, 48 h, read-out: GI
[22] = tested on: COLO 205; experiment: Growth inhibition of human COLO205 cells at 10 uM after 48 hrs by sulforhodamine B assay; type: functional
[23] = tested on: OVCAR-8; experiment: Growth inhibition of human OVCAR8 cells at 10 uM after 48 hrs by sulforhodamine B assay; type: functional
[24] = tested on: UACC-257; experiment: Growth inhibition of human UACC257 cells at 10 uM after 48 hrs by sulforhodamine B assay; type: functional
[25] = tested on: SK-OV-3; experiment: Growth inhibition of human SKOV3 cells at 10 uM after 48 hrs by sulforhodamine B assay; type: functional
[26] = tested on: NCI-H522; experiment: Growth inhibition of human NCI-H522 cells at 10 uM after 48 hrs by sulforhodamine B assay; type: functional
[27] = tested on: U-251; experiment: Growth inhibition of human U251 cells at 10 uM after 48 hrs by sulforhodamine B assay; type: functional
[28] = tested on: DU-145; experiment: Growth inhibition of human DU145 cells at 10 uM after 48 hrs by sulforhodamine B assay; type: functional
[29] = tested on: HT-29; experiment: Growth inhibition of human HT-29 cells at 10 uM after 48 hrs by sulforhodamine B assay; type: functional
[30] = tested on: NCI/ADR-RES; experiment: Growth inhibition of human NCI-ADR-RES cells at 10 uM after 48 hrs by sulforhodamine B assay; type: functional
[31] = tested on: OVCAR-5; experiment: Growth inhibition of human OVCAR5 cells at 10 uM after 48 hrs by sulforhodamine B assay; type: functional
[32] = tested on: LOX IMVI; experiment: Growth inhibition of human LOXIMVI cells at 10 uM after 48 hrs by sulforhodamine B assay; type: functional; conditions: read-out: GI
[33] = tested on: UO-31; experiment: Growth inhibition of human UO31 cells at 10 uM after 48 hrs by sulforhodamine B assay; type: functional; conditions: UO-31, 48 h, read-out: GI
[34] = tested on: SNB-75; experiment: Growth inhibition of human SNB75 cells at 10 uM after 48 hrs by sulforhodamine B assay; type: functional; conditions: SNB-75, 48 h, read-out: GI
[35] = tested on: HL-60(TB); experiment: Growth inhibition of human HL-60(TB) cells at 10 uM after 48 hrs by sulforhodamine B assay; type: functional; conditions: HL-60, 48 h, read-out: GI
[36] = tested on: SK-MEL-2; experiment: Growth inhibition of human SK-MEL-2 cells at 10 uM after 48 hrs by sulforhodamine B assay; type: functional
[37] = tested on: K562; experiment: Growth inhibition of human K562 cells at 10 uM after 48 hrs by sulforhodamine B assay; type: functional; conditions: K562, 48 h, read-out: GI
[38] = tested on: A498; experiment: Growth inhibition of human A498 cells at 10 uM after 48 hrs by sulforhodamine B assay; type: functional; conditions: A498, 48 h, read-out: GI
[39] = tested on: MDA-MB-468; experiment: Growth inhibition of human MDA-MB-468 cells at 10 uM after 48 hrs by sulforhodamine B assay; type: functional
[40] = tested on: RXF 393; experiment: Growth inhibition of human RXF393 cells at 10 uM after 48 hrs by sulforhodamine B assay; type: functional
[41] = tested on: SW-620; experiment: Growth inhibition of human SW620 cells at 10 uM after 48 hrs by sulforhodamine B assay; type: functional
[42] = tested on: NCI-H322M; experiment: Growth inhibition of human NCI-H322M cells at 10 uM after 48 hrs by sulforhodamine B assay; type: functional
[43] = tested on: HCT-116; experiment: Growth inhibition of human HCT116 cells at 10 uM after 48 hrs by sulforhodamine B assay; type: functional; conditions: HCT-116, 48 h, read-out: GI
[44] = tested on: CAKI-1; experiment: Growth inhibition of human CAKI-1 cells at 10 uM after 48 hrs by sulforhodamine B assay; type: functional
[45] = tested on: A549; experiment: Growth inhibition of human A549/ATCC cells at 10 uM after 48 hrs by sulforhodamine B assay; type: functional
[46] = tested on: SR; experiment: Growth inhibition of human SR cells at 10 uM after 48 hrs by sulforhodamine B assay; type: functional; conditions: read-out: GI
[47] = tested on: OVCAR-4; experiment: Growth inhibition of human OVCAR4 cells at 10 uM after 48 hrs by sulforhodamine B assay; type: functional
[48] = tested on: MOLT-4; experiment: Growth inhibition of human MOLT4 cells at 10 uM after 48 hrs by sulforhodamine B assay; type: functional; conditions: MOLT-4, 48 h, read-out: GI
[49] = tested on: UACC-62; experiment: Growth inhibition of human UACC62 cells at 10 uM after 48 hrs by sulforhodamine B assay; type: functional
[50] = tested on: MDA-MB-231; experiment: Growth inhibition of human MDA-MB-231 cells at 10 uM after 48 hrs by sulforhodamine B assay; type: functional
[51] = biological target: Carbonic anhydrase 9 (Homo sapiens, UniProt Q16790); experiment: Inhibition of human carbonic anhydrase 9 after 15 mins by stopped flow CO2 hydration assay
[52] = tested on: ACHN; experiment: Growth inhibition of human ACHN cells at 10 uM after 48 hrs by sulforhodamine B assay; type: functional
[53] = tested on: T47D; experiment: Growth inhibition of human T47D cells at 10 uM after 48 hrs by sulforhodamine B assay; type: functional
[54] = tested on: TK-10; experiment: Growth inhibition of human TK10 cells at 10 uM after 48 hrs by sulforhodamine B assay; type: functional
[55] = tested on: NCI-H460; experiment: Growth inhibition of human NCI-H460 cells at 10 uM after 48 hrs by sulforhodamine B assay; type: functional
[56] = tested on: SK-MEL-28; experiment: Growth inhibition of human SK-MEL-28 cells at 10 uM after 48 hrs by sulforhodamine B assay; type: functional, cell-based
[57] = tested on: MDA-MB-435; experiment: Growth inhibition of human MDA-MB-435 cells at 10 uM after 48 hrs by sulforhodamine B assay; type: functional

SMILES: NS(=O)(=O)c1cnccc1N1CCN(Cc2ccccc2)CC1
- growth inhibition (GI) [1]: inactive
- growth inhibition (GI) [2]: inactive
- growth inhibition (GI) [3]: inactive
- inhibition of growth at 10 µM [4]: 1%
- growth inhibition (GI) [5]: inactive
- growth inhibition (GI) [6]: inactive
- inhibition of growth at 10 µM [7]: 3%
- growth inhibition (GI) [8]: inactive
- growth inhibition (GI) [9]: inactive
- inhibition of growth at 10 µM [10]: 9%
- growth inhibition (GI) [11]: inactive
- inhibition of growth at 10 µM [12]: 1%
- inhibition of growth at 10 µM [13]: 6%
- inhibition of growth at 10 µM [14]: 1%
- inhibition of growth at 10 µM [15]: 1%
- growth inhibition (GI) [16]: inactive
- growth inhibition (GI) [17]: inactive
- inhibition of growth at 10 µM [18]: 2%
- growth inhibition (GI) [19]: inactive
- growth inhibition (GI) [20]: inactive
- inhibition of growth at 10 µM [21]: 6%
- growth inhibition (GI) [22]: inactive
- growth inhibition (GI) [23]: inactive
- growth inhibition (GI) [24]: inactive
- growth inhibition (GI) [25]: inactive
- growth inhibition (GI) [26]: inactive
- growth inhibition (GI) [27]: inactive
- growth inhibition (GI) [28]: inactive
- growth inhibition (GI) [29]: inactive
- growth inhibition (GI) [30]: inactive
- growth inhibition (GI) [31]: inactive
- inhibition of growth at 10 µM [32]: 4%
- inhibition of growth at 10 µM [33]: 14%
- inhibition of growth at 10 µM [34]: 7%
- inhibition of growth at 10 µM [35]: 8%
- growth inhibition (GI) [36]: inactive
- inhibition of growth at 10 µM [37]: 3%
- inhibition of growth at 10 µM [38]: 5%
- growth inhibition (GI) [39]: inactive
- growth inhibition (GI) [40]: inactive
- growth inhibition (GI) [41]: inactive
- growth inhibition (GI) [42]: inactive
- inhibition of growth at 10 µM [43]: 6%
- growth inhibition (GI) [44]: inactive
- growth inhibition (GI) [45]: inactive
- inhibition of growth at 10 µM [46]: 13%
- growth inhibition (GI) [47]: inactive
- inhibition of growth at 10 µM [48]: 5%
- growth inhibition (GI) [49]: inactive
- growth inhibition (GI) [50]: inactive
- Ki [51]: 45.1 nM
- growth inhibition (GI) [52]: inactive
- growth inhibition (GI) [53]: inactive
- growth inhibition (GI) [54]: inactive
- growth inhibition (GI) [55]: inactive
- growth inhibition (GI) [56]: inactive
- growth inhibition (GI) [57]: inactive
